One test concerns COS and HT22 cells. Put plainly: Overall tyrosine phosphorylation in COS and HT22 cells. Format: cell-based. Here is the method: Measurement of Receptor Tyrosine Phosphorylation in Cells—HT22 neuronal cells, which endogenously express EphA4, are derived from immortalized mouse hippocampal neurons (Li et al. (1997) Neuron 19(2), 453-463). COST cells, which endogenously express EphA2, EphB2 and the EGF receptor (EGFR), were obtained from ATCC. Both cell lines were grown in Dulbecco's Modified Eagle's Medium (DMEM) (Mediatech, Inc, Herndon, Va.) with 10% fetal bovine serum (FBS) (Hyclone, Logan, Utah) and Pen/Strep. For EphA4 immunoprecipitations, HT22 cells were serum-starved overnight in 0.5% FBS in DMEM and incubated for 15 min with the compounds or DMSO as a control. The cells were then stimulated with 0.5 μg/mL ephrin-A5 Fc, ephrin-A4 Fc or Fc for 20 min in the continued presence of the compounds. After stimulation the cells were lysed in modified RIPA buffer (1% Triton X-100, 1% Na deoxycholate; 0.1% SDS; 20 mM Tris; 150 mM NaCl; 1 mM EDTA) containing […], 1 μM sodium pervanadate and protease inhibitors. The protein concentration was calculated using the BCA protein assay kit (Pierce Biotecnology, Rockford, Ill.). Cell lysates were immunoprecipitated with 4 μg anti-EphA4 antibody (Soans et al. (1994) Oncogene 9(11), 3353-3361). For EphA2 and EphB2 immunoprecipitations, serum-starved COS7 cells were stimulated with 0.1 μg/mL ephrin-A1 Fc or 0.5 μg/mL ephrin-B2 Fc, respectively. […]

The next test addresses EphA4 (Homo sapiens, UniProt P54764). The experiment in a line: ELISA, ephrin-A5 AP binding to immobilized EphA4 Fc. As to conditions: for IC50: read-out: IC50 for inhibition of ephrin-A5 AP binding to EphA4. The protocol: ELISA Assays and K, Determination—Protein A-coated wells (Pierce Biotecnology, Rockford, Ill.) were used to immobilize ephrin Fc fusion proteins (R&D Systems, Minneapolis, Minn.). Compounds at different concentrations were incubated with EphA4 AP (Cheng and Flanagan, (1994) Cell 79(1), 157-168) or EphA2 AP (Koolpe et al. (2002) J Biol Chem 277(49), 46974-46979) for 3 hours. Alternatively, Eph receptor Fc fusion proteins were immobilized on protein A-coated wells and ephrin-A5 AP (Menzel et al. (2001) Developmental Biology 230(1), 74-88) or ephrin-B2 AP (GeneHunter, Nashville, Tenn.) were added with the compounds. The amount of bound AP-fusion protein was quantified using pNPP as the substrate. Alkaline phosphatase activity from wells with Fc only was subtracted as background. To confirm that the binding of the compounds to EphA4 was reversible, the compounds were removed and the wells were incubated in binding buffer for 3 hours before washing and incubating with ephrin AP fusion proteins. Under these conditions, no inhibition of ephrin binding was observed indicating the reversible binding of the compounds.
To calculate the inhibition constant (KO values, the binding of ephrin-A5 AP to EphA4 Fc immobilized on protein A-coated wells was measured in the absence and in the presence of the compounds at different concentrations. Each data set was fitted to the Michaelis-Menten equation: B=Bmax [S]/(KD+[S]), where [S] is the concentration of ephrin AP fusion protein and KD is the dissociation constant observed in the absence or in the presence of the compound, using non linear regression and the program GraphPad (Prism). To evaluate whether the inhibition is competitive, noncompetitive or uncompetitive the KD and Bmax values were determined at different compound concentrations. The Ki was obtained from the linear regression plot of KD/Bmax as a function of the concentration of the inhibitor according to: KD/Bmax=(KD[S])/(Ki·Bmax)+KD/Bmax. Alternatively, Ki values were obtained from the dose response curves, using the Cheng-Prusoff equation: Ki=IC50/(1+[S]/KD) (XX38, Cheng, Y., and Prusoff, W. H. (1973) Biochemical pharmacology 22(23), 3099-3108). Ephrin-A5 AP concentration were calculated from alkaline phosphatase activity (Flanagan et al. (2000) Methods in Enzymology. 327, 19-35).
For orientation: In an ELISA, binding on a coated surface is turned into a signal by an enzyme label.

The subject of the next test is EphB2. Put plainly: EphB2 tyrosine phosphorylation in COS7 cells. In kind it is cell-based. As to conditions: COS7 cells stimulated with ephrin-B2 Fc.
For a further test, the system named is alkaline phosphatase. The experiment in a line: Control: alkaline phosphatase activity in solution. Format: biochemical.
The mark [1] stands for this setting: from ephrin-A5 AP binding curves at different compound concentrations, read-out: Ki, competitive inhibition of EphA4-ephrin-A5 binding.
Setting [2] is: from other inhibition curves using different ephrin concentrations, read-out: Ki calculated with the Cheng-Prusoff equation, EphA4-ephrin-A5.
The mark [3] stands for this setting: from the inhibition curves shown in FIG. 2, read-out: Ki calculated with the Cheng-Prusoff equation, EphA4-ephrin-A5.

Read-outs that look alike come from different tables or passages of the source.

Sequence of EphA4 (P54764 20-547 limits assumed, species assumed): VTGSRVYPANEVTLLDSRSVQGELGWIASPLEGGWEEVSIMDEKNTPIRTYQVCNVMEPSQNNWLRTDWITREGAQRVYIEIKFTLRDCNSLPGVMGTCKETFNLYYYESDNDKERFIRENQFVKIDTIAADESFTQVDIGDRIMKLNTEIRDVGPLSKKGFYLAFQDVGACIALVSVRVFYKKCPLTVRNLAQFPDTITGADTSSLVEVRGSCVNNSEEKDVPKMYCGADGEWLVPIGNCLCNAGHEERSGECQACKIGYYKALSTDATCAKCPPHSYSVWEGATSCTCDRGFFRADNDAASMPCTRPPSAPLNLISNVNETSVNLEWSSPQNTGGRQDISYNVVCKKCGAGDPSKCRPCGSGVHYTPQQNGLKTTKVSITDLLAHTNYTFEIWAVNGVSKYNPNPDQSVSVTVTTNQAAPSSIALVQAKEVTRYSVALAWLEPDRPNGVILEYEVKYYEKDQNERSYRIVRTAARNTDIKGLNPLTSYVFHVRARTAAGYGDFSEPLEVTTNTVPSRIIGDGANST

As usually defined, the Ki is a measure of affinity in units of concentration, obtained from inhibition or displacement. In general, IC50 refers to the midpoint of a concentration-inhibition curve. For `Cc1ccc(C)n1-c1ccc(C(=O)O)c(O)c1` [compound 1, 4-(2,5-dimethyl-pyrrol-1-yl)-2-hydroxy-benzoic acid], the overall tyrosine phosphorylation result with COS and HT22 cells is reported as “did not inhibit”. Also, the “inhibition of EphA4-ephrin-A5 binding (in words)” value at EphA4 was “inhibit”. In addition, at EphA4 (compounds removed, 3 hours in binding buffer before ephrin AP), the “reversibility of binding to EphA4” value is “binds reversibly”. The values for the Ki at EphA4 (setting [1]), at EphA4 (setting [2]) and at EphA4 (setting [3]) were 8 µM, 6 to 10 µM and 10 µM, respectively. Besides, the IC50 on EphA4 stood at 13 µM. The “phosphorylation of endogenous EphB2” value in the test with EphB2 was “did not inhibit”. In the test on alkaline phosphatase, the “inhibition of alkaline phosphatase activity (control)” value is on record as “does not inhibit”.
Regarding `Cc1ccc(C)n1-c1ccc(O)c(C(=O)O)c1` [compound 2, 5-(2,5 dimethyl-pyrrol-1-yl)-2-hydroxy-benzoic acid], the overall tyrosine phosphorylation result in the test with COS and HT22 cells is “did not inhibit”. The “inhibition of EphA4-ephrin-A5 binding (in words)” value on EphA4 is on record as “inhibit”. Further, the Ki on EphA4 (setting [1]) is 7 µM; at EphA4 (setting [2]), 6 to 8 µM; at EphA4 (setting [3]), 6 µM. Moreover, the IC50 at EphA4 is 9 µM. In the test with EphB2, the “phosphorylation of endogenous EphB2” value is “did not inhibit”.

The values are drawn from patent publication US20100256214A1, “EPH RECEPTOR LIGANDS AND METHODS OF USE” (Burnham Institute for Medical Research, priority 2009, published 2010).
